One data set concerns cystic fibrosis. Nature of the data set: Treatment of cystic fibrosis patients with DNA drops. Format: in vivo, human. The note with it: person, advanced cystic fibrosis, 0.0003 mg per sublingual drop, four times daily.
A further data set has as its system heaves (equine COPD). Format: in vivo, horse. How it is done:
According to this example, a quarter horse mare, at least 20 years of age, suffering from symptoms of heaves (equine COPD) for over ten years was treated subcutaneously twice daily with synthetic DNA. Each dose contained 0.0003 mg of poly(dA):poly(dT) synthetic DNA (Sigma) diluted in phenolated saline. […] Specifically, the horse was no longer coughing, nostrils were not flaring, and breathing was less labored. After one week of administering two doses per day, administration was reduced to once per day for two weeks, then given only on an “as needed” basis.
According to this example, a 15 year old gelding (male horse) suffering from heaves (equine COPD) for over two years was treated with synthetic DNA as described in example XXXIX.

For the next data set, the system named is respiratory congestion. The data set is described as follows: Treatment of patients with respiratory congestion (emphysema, bronchitis, upper respiratory illness, sinusitis). Format: in vivo, human. The note with it: middle-aged person, chronic sinusitis, one sublingual drop (0.0003 mg) four times daily. As to the method:
A patient who suffered from emphysema and bronchitis, as diagnosed by their physician, was placed on a dose of 1 drop per day (0.0006 mg/drop) of DNA sublingually.
A person diagnosed with chronic upper respiratory illness was treated with methods according to the invention. Previous antibiotic therapy was unsuccessful in treating their condition. […] They have remained symptom free.
A nurse presented with a severe upper respiratory infection and unproductive respiratory congestion. […] Expectoration was improved and the patient's illness resolved after 4.5 days and no congestion recurred.
A person presented with chronic sinusitis. Four drops of DNA per day were administered.
A person presented with unresolved respiratory congestion. […] The patient was then prescribed four drops of DNA (0.0006 mg/drop) per day.
A person with unproductive upper respiratory congestion was placed on 4 drops of DNA (0.0006 mg/drop) per day. […] In this case, therapy was supplemented with an over-the-counter expectorant.
A person with acute and chronic respiratory disease due to exposure to toxic corrosive materials was treated with methods according to the invention. Prior to such treatment, symptoms, including chronic rhinorrhea, chest congestion and chronic respiratory infections were treated with numerous courses of antibiotics without success. […]

Like-named read-outs stand apart in the source and are kept apart here. A value given as a limit tells only on which side of the number the result lay.

Regarding poly(dG):poly(dC), in the data set on cystic fibrosis, the “therapeutic activity after change to synthetic DNA” value was “same results”. The “condition of the horse” value with heaves (equine COPD) (15 year old gelding) was “significant improvement”; in the data set with heaves (equine COPD) (quarter horse mare, identical treatment), “significant improvement”.

As for poly(dA):poly(dT), in the data set on cystic fibrosis, the “therapeutic activity after change to synthetic DNA” value is “no decrease in therapeutic activity”. Besides, in the data set with respiratory congestion, the overall response entry is reported as “improved overall response, including the absence of headaches” and the “time to improvement in condition” value was no more than 48 h. Besides, the improvement entry in the data set with heaves (equine COPD) (15 year old gelding, treated as in example XXXIX) is “Improvement was noted within the first three days”. For the same substance, the adverse effects entry in the data set with heaves (equine COPD) (in vivo) was “no adverse effects noted”. The “condition of the horse” value with heaves (equine COPD) (quarter horse mare, 0.0003 mg subcutaneously twice daily, thirty-six hours after treatment began) was “significantly improved”.

These data come from patent US20030032614A1, “Method of treating respiratory distress using synthetic polynucleic acids” (priority 1995, published 2003).
